Assay results from US11452731B2, “Method of treating and preventing loss of cognition” (ENDORECHERCHE, INC., priority 2009, dated 2022).
Structures can show the parent of a compound that is named as a salt. Marks after values point to notes of the source that are not given here.

Key:
[1] = 26-week treatment of ovariectomized rats: lumbar spine BMD, total body fat, serum cholesterol, ALP (Example 4, experiment 2); type: in vivo, rat; details: OVX rats, 26 weeks
Procedure: Ten to twelve week-old female Sprague-Dawley rats (Crl:CD(SD)Br) (Charles River Laboratory, St-Constant, Canada) weighing approximately 220-270 g at start of treatment were used. […] The animals were housed individually and were allowed free access to tap water and a pelleted certified rodent feed (Lab Diet 5002, Ralston Purina, St-Louis, Mo.). Experiments were conducted in an animal facility approved by the Canadian Council on Animal Care (CCAC) and the Association for Assessment and Accreditation of Laboratory Animal Care (AAALAC) in accordance with the CCAC Guide for Care and Use of Experimental Animals. […] Treatments were initiated on day 2 of the study and were performed once daily during 26 weeks. In both experiments, animals not receiving a test article were treated with the appropriate vehicle alone during the same period. […] QDR 4500A, Hologic, Waltham, Mass.) and a Regional High Resolution Scan software. […] Samples were processed for serum preparation and frozen at -80° C. until assay. Serum cholesterol levels and alkaline phospatase activity (ALP) were determined using the Boehringer Mannheim Diagnostic Hitachi 911 Analyzer (Boehringer Mannheim Diagnostic Laboratory Systems).

[2] = tested on: ZR-75-1 human breast cancer xenografts; assay: Growth and response of human ZR-75-1 breast tumor xenografts in estrone-supplemented OVX nude mice, DHEA and/or EM-800 for 9.5 months (Example 1); type: in vivo
[3] = Uterine, vaginal and body weight in estrone-supplemented OVX nude mice (Example 1); type: in vivo; details: estrone alone
Procedure: DHEA was dissolved in 50% ethanol 50% propylene glycol. […] Tumors were measured once a week with Vernier calipers.

[4] = tested on: ZR-75-1 human breast cancer xenografts; assay: Growth and response of human ZR-75-1 breast tumors in OVX nude mice, 7 antiestrogens for 161 days with or without estrone (Example 8); type: in vivo
Procedure: ZR-75-1 human breast cancer cells were obtained from the American Type Culture Collection (Rockville, Md.) and cultured in phenol red-free RPMI-1640 medium. […] (Saint-Constant, Québec, Canada). The mice (5 per cage) were housed in vinyl cages equipped with air filter lids, which were kept in laminar airflow hoods and maintained under pathogen-limiting conditions. The photoperiod was 12 hours of light and 12 hours of darkness (lights on at 07:15). Cages, bedding and food (Agway Pro-Lab R-M-H Diet #4018) were autoclaved before use. Water was autoclaved and provided ad libitum. Bilateral ovariectomy was performed under isoflurane-induced anesthesia. […] Randomization and treatments were started one week later. […] The estrone implants were then removed from the animals in the ovariectomized control group (OVX) and in groups that were to receive the antiestrogen alone. […] Tamoxifen was purchased from […]) while toremifene citrate was purchased from Orion (Espoo, Finland). […] The antiestrogen suspensions at the appropriate concentration were prepared each month, stored at 4° C. and used under constant agitation. Powder stock were hermetically stored at 4° C. […] Two perpendicular diameters were recorded and tumor area (mm2) was calculated using the formula: […] Tumor response was assessed at the end of the study or at death of each animal, if it occurred during the course of the experiment. In this case, only data of mice that survived for at least half of the study ([…]) were used in the tumor response analysis.

[5] = Uterine and vaginal weight in ovariectomized BALB/c mice treated orally for 9 days with or without estrone (Example 3); type: in vivo; details: OVX + E1 alone
Procedure: Female BALB/c mice (BALB/cAnNCrlBR) weighing 18-20 g were obtained from Charles-River, Inc. (St-Constant, Quebec, Canada) and housed 5 per cage in a temperature (23±1° C.)- and light (12 h light/day, lights on at 7:15)-controlled environment. The mice were fed rodent chow and tap water ad libitum. The animals were ovariectomized (OVX) under Isoflurane anesthesia via bilateral flank incisions and randomly assigned to groups of 10 animals. Ten mice were kept intact as controls.
In the second experiment (Table 6), TSE 424 was administered orally by gavage once daily at doses of 1, 3, 10 or 30 μg/animal for 9 days, starting 2 days after ovariectomy. In both experiments, to evaluate the antiestrogenic activity, treatment with estrone (E1, […], s.c. injection, twice daily) was started 5 days post-ovariectomy and was administered for a 6 day-period. Compounds were dissolved in ethanol (4% final concentration) and administered in 0.4% methylcellulose. Mice in the intact and OVX control groups received the vehicle alone (4% ETOH-0.4% methylcellulose) during the 9-day period. The animals were killed by exsanguination at the abdominal aorta on the 11th morning following ovariectomy. The uteri and vagina were rapidly dissected, weighed, and kept in 10% buffered formalin for further histologic examination.

[6] = 5-week treatment of ovariectomized rats with SERMs alone or with DHEA: BMD of lumbar spine, femur, tibia (Example 5); type: in vivo, rat; details: OVX rats, 5 weeks
Procedure: (§1) Ten to twelve week-old female Sprague-Dawley rats (Crl:CD(SD)Br) (Charles River Laboratory, St-Constant, Canada) weighing approximately 220-270 g at start of treatment were used. The animals were acclimatized to the environmental conditions (temperature: 22±3° C.; humidity: 50±20%; 12-h light-12-h dark cycles, lights on at 07:15 h) for at least 1 week before starting the experiments. The animals were housed individually and were allowed free access to tap water and a pelleted certified rodent feed (Lab Diet 5002, Ralston Purina, St-Louis, Mo.). Experiments were conducted in an animal facility approved by the Canadian Council on Animal Care (CCAC) and the Association for Assessment and Accreditation of Laboratory Animal Care (AAALAC) in accordance with the CCAC Guide for Care and Use of Experimental Animals.
On day 1 of the study, the animals of the appropriate groups were bilaterally ovariectomized (Ovx) under isoflurane anesthesia. The DHEA was applied topically on the dorsal skin as a solution in 50% ethanol-50% propylene glycol while the tested SERMs were administered as suspension in 0.4% methylcellulose by oral gavage. Treatments were initiated on day 2 of the study and were performed once daily during 5 weeks.
After 5 weeks of treatment, individual rats under Isoflurane anesthesia had their lumbar spine, femur and tibia scanned using dual energy x-ray absorptiometry (DEXA; QDR 4500A, Hologic, Waltham, Mass.) and a Regional High Resolution Scan software. The bone mineral density (BMD) of the lumbar spine (vertebrae L2 to L4), distal femoral metaphysis (DFM) and proximal tibial metaphysis (PTM) were determined.

[7] = tested on: human Ishikawa cells; assay: Alkaline phosphatase activity in human endometrial adenocarcinoma Ishikawa cells (Example 6); details: for Emax: read-out: Maximal stimulation of alkaline phosphatase % of 1 nM E2 stimulation
[8] = 12-month treatment of ovariectomized rats with DHEA alone or with Flutamide or EM-800: bone histomorphometry, bone markers, serum lipids; type: in vivo, rat; details: added to DHEA, OVX rats, 12 months
[9] = 3-month treatment of ovariectomized rats: lumbar spine BMD, total body fat, serum cholesterol, ALP (Example 4, experiment 1); type: in vivo, rat; details: OVX rats, 3 months
Procedure: as §1
On day 1 of the study, the animals of the appropriate groups were bilaterally ovariectomized (OVX) under isoflurane anesthesia. The DHEA was applied topically on the dorsal skin as a solution in 50% ethanol-50% propylene glycol while the other tested compounds were administered as suspension in 0.4% methylcellulose by oral gavage. Treatments were initiated on day 2 of the study and were performed once daily during 3 months.
After 3 months (experiment 1) or 26 weeks (experiment 2) of treatment, individual rats under Isoflurane anesthesia had their whole body skeleton and lumbar spine scanned using dual energy x-ray absorptiometry (DEXA; QDR 4500A, Hologic, Waltham, Mass.) and a Regional High Resolution Scan software. The bone mineral density (BMD) of the lumbar spine (vertebrae L2 to L4) and the total body composition (fat percentage) were determined.
After 3 months (experiment 1) or 26 weeks (experiment 2) of treatment, blood samples were collected at the jugular vein from overnight fasted animals (under Isoflurane anesthesia). Samples were processed for serum preparation and frozen at −80° C. until assay. Serum cholesterol levels and alkaline phospatase activity (ALP) were determined using the Boehringer Mannheim Diagnostic Hitachi 911 Analyzer (Boehringer Mannheim Diagnostic Laboratory Systems).

[10] = Endometrial epithelium thickness in OVX nude mice after 161 days of antiestrogen (Example 8); type: in vivo
Excerpt: The 17 groups included two control groups (OVX and OVX+Estrone), seven groups supplemented with an estrone implant and treated with an antiestrogen and eight other groups that received an antiestrogen alone. The estrone implants were then removed from the animals in the ovariectomized control group (OVX) and in groups that were to receive the antiestrogen alone. […] Tamoxifen was purchased from […]) while toremifene citrate was purchased from Orion (Espoo, Finland). […] The antiestrogen suspensions at the appropriate concentration were prepared each month, stored at 4° C. and used under constant agitation. Powder stock were hermetically stored at 4° C. […] After 161 days of treatment, the remaining animals were anesthetized with isoflurane and killed by exsanguination. […] The uteri were prepared to evaluate endometrial thickness by image analysis performed with Image Pro-Plus (Media Cybernetics, Maryland, USA). […] Hematoxylin- and eosin-stained sections of mice uteri were analyzed. […] Mean epithelial cell height was measured in all animals of each group.

[11] = Premarin 0.25 mg/kg, SERMs 2.5 mg/kg
[12] = Ishikawa cells, 5-day incubation, 1 nM E2
[13] = E2 1 mg/kg, EM-652.HCl 2.5 mg/kg, DHEA 80 mg/kg
[14] = estrone-supplemented, 50 μg daily, 161 days

In the case of `Oc1ccc2c(c1)CC[C@H](c1ccccc1)[C@@H]2c1ccc(OCCN2CCCC2)cc1` (racemic) [Lasofoxifene, (−)-cis-(5R,6S)-6-phenyl-5-[4-(2-pyrrolidin-1-ylethoxy)phenyl]-5,6,7,8-tetrahydronaphthalen-2-ol, D-(−)-tartrate salt], the ALP [1] is reported as 116 ± 9 IU, the “CHOLESTEROL (serum)” value [1] is reported as 0.60 ± 0.02 mmol/L and the “TOTAL FAT” value [1] is reported as 24.1 ± 1.3 %. For the same compound, the “reversal of the fat increase induced by estrogen deficiency” value [1] was 114%, the “LUMBAR SPINE BMD” value [1, 11] was 0.2307 ± 0.0040 g/cm^2 and the “LUMBAR SPINE Prevention of Bone Loss” value [1, 11] was 61%.

In the case of `C[C@]12CC[C@@H]3c4ccc(O)cc4CC[C@H]3[C@@H]1CCC2=O` [E1, estrone], the “Category of response: Complete (%)” value ([2]; E1 0.5 μg alone) is reported as 0 (0) %, the “Category of response: Complete (Number)” value ([2]; E1 0.5 μg alone) is reported as 0 (0) and the “Category of response: Partial (%)” value ([2]; E1 0.5 μg alone) is reported as 0 (0) %. The “Category of response: Partial (Number)” value ([2]; E1 0.5 μg alone) was 0 (0), the “Category of response: Progression (%)” value ([2]; E1 0.5 μg alone) was 87.5% and the “Category of response: Progression (Number)” value ([2]; E1 0.5 μg alone) was 14. The “Category of response: Stable (%)” value ([2]; E1 0.5 μg alone) was 12.5%, the “Category of response: Stable (Number)” value ([2]; E1 0.5 μg alone) was 2 and the “Category of response: Complete (%)” value ([2]; E1 0.5 μg alone, listed as estrone) was 0%. For the same compound, the “Average tumor weight at end of experiment” value ([2]; estrone 0.5 μg alone (control E1-supplemented OVX mice)) was 1.12 ± 0.26 g, the “increase in ZR-75-1 tumor size” value ([2]; estrone 0.5 μg s.c. daily alone, 291 days (9.5 months)) was 9.4 fold and the UTERINE WEIGHT [3] was 132 ± 8 mg. For the same compound, the VAGINAL WEIGHT [3] was 31 ± 2 mg, the “increase in ZR-75-1 tumor size” value ([4]; Estrone alone (OVX+E1), 23 weeks) was 707% and the “UTERINE WEIGHT” value [5] was 118.3 ± 6.0 mg. For the same compound, the “VAGINAL WEIGHT” value [5] was 53.4 ± 2.8 mg.

In the case of `Cc1c(-c2ccc(O)cc2)n(Cc2ccc(OCCN3CCCCC3)cc2)c2ccc(O)cc12` [ERA-923, 2-(4-hydroxyphenyl)-3-methyl-1-[[4-[2-(1-piperidinyl)ethoxy]phenyl]methyl]-1H-indol-5-ol], the “DISTAL FEMORAL METAPHYSIS (DFM) BMD” value [6] is reported as 0.2969 ± 0.0029 g/cm^2, the “DISTAL FEMORAL METAPHYSIS (DFM) Prevention of Bone Loss” value [6] is reported as 83% and the “PROXIMAL TIBIAL METAPHYSIS (PFM) BMD” value [6] is reported as 0.2805 ± 0.0034 g/cm^2. The “PROXIMAL TIBIAL METAPHYSIS (PFM) Prevention of Bone Loss” value [6] was 91%, the “LUMBAR SPINE (L2-L4) BMD” value ([6]; SERMs 2.5 mg/kg, DHEA 80 mg/kg) was 0.2214 ± 0.0029 g/cm^2 and the “LUMBAR SPINE (L2-L4) Prevention of Bone Loss” value ([6]; SERMs 2.5 mg/kg, DHEA 80 mg/kg) was 78%. For the same compound, the IC50 ([7]; Homo sapiens, Ishikawa, 120 h, read-out: Inhibition of 1 nM E2-induced stimulation of alkaline phosphatase IC50) was 5.84 nM, the Emax ([7]; Homo sapiens, Ishikawa, 120 h) was 0.6% and the “Maximal inhibition of 1 nM E2-induced stimulation of alkaline phosphatase” value [7, 12] was 100.16 (1).

With `CC(C)C(=O)Nc1ccc([N+](=O)[O-])c(C(F)(F)F)c1` [FLU, Flutamide] the “reversal of the stimulatory effect of DHEA on serum alkaline phosphatase” value [8] was 65%.

In the case of `CC/C(=C(\c1ccccc1)c1ccc(/C=C/C(=O)O)cc1)c1ccccc1` [GW 5638], the “ALP (serum alkaline phosphatase activity)” value [9] is reported as 72 ± 6 IU/L, the “CHOLESTEROL (serum)” value [9] is reported as 1.14 ± 0.08 mmol/L and the “TOTAL FAT” value [9] is reported as 21.9 ± 1.4 %. The “LUMBAR SPINE BMD” value [9, 13] was 0.2299 ± 0.0060 g/cm^2, the “LUMBAR SPINE Prevention of Bone Loss” value [9, 13] was 34% and the “inhibition of the stimulatory effect of estrone on epithelial height” value ([10]; 50 μg daily oral, estrone stimulation) was 24%. The “height of uterine epithelial cells, % of the OVX control group value” ([10]; 200 μg daily, absence of estrone) was 121%, the “ENDOMETRIAL EPITHELIUM THICKNESS (μm) ± SEM” value ([10]; OVX + E1, antiestrogen 50 μg daily) was 35.30^b,d ± 0.07 μm and the “ENDOMETRIAL EPITHELIUM THICKNESS (μm) ± SEM” value ([10]; OVX without E1, antiestrogen 200 μg daily) was 22.22^a ± 0.05 μm. The Emax ([7]; Homo sapiens, Ishikawa, 120 h) was 7.75 ± 5.5%, the “Inhibition of 1 nM E2-induced stimulation of alkaline phosphatase IC50” value [7, 12] was “No inhibition” and the “increase of average tumor size over baseline (agonistic effect)” value ([4]; absence of estrone, 200 μg daily, 161 days) was “did not significantly change”. The “average tumor size above pretreatment values” ([4]; estrone-stimulated, 50 μg oral daily, 23 weeks) was 227%, the “progressing tumors, % of tumors” value [4, 14] was 77% and the “progressing tumors, number of total” value [4, 14] was 20 of 26.
